Assay [1] relates to PSNL mice (chronic neuropathic pain model). The assay is described as follows: EEG/EMG sleep evaluation in the chronic pain model induced by partial sciatic nerve ligation (PSNL). Format: in vivo, C57BL/6J mice. To be noted: for components of pain-related sleep disturbance (sleep time loss, fragmentation of sleep, daytime sleepiness): mouse model of chronic neuropathic pain, summary statement; for duration of non-REM sleep (sleep fragmentation): 6-hour intervals.

The next assay has as its system sham surgery mice. Kind of assay: EEG/EMG sleep evaluation in sham surgery mice. Format: in vivo, C57BL/6J mice. Here is the method:
Norbinaltorphimine (nor-BNI) was dissolved in 0.9% saline to 10 mg/kg just before injection. C57BL/6J mice received intraperitoneal injection of nor-BNI or vehicle (0.9% saline) 30 minutes before EEG/EMG record at 10 days after partial sciatic nerve ligation (PSNL) surgery (FIG. 2A). CYM-53093 was synthesized as described previously by Guerrero et al. It was dissolved in DMSO, tween and saline at a ratio of 1:1:8. C57BL/6J mice were implanted with a micro-osmotic pump under the skin at 8 days after PSNL surgery and received continuous infusion of CYM-53093 (10 mg/kg/day) or vehicle. Mice had surgical recovery for 1 day after pump implantation followed by EEG/EMG record for 5 days (FIG. 3A).
EEG/EMG recording head-mount implantation was done under 2-5% isoflurane anesthesia, mice were implanted with EEG and EMG electrodes for polysomnographic recordings (Pinnacle Technology, Oregon, USA) as described previously by Ito et al. Recording was done in awake animals after acclimatization using EEG/EMG mouse sleep equipment from Pinnacle Technology. The collected EEG/EMG data were analyzed by software (Sleepsign; Kissei Comtec, Japan). The vigilance of every 5-second epoch was automatically classified into three stages, i.e., wakefulness, REM and non-REM sleep, according to the standard criteria. As a final step, defined sleep-wake stages were examined visually and corrected, if necessary. The vigilance states were assessed as follows: 1) wakefulness was defined by a high EMG amplitude, low EEG amplitude; 2) REM sleep was defined by a low EMG amplitude, low EEG amplitude, and high 0 wave (5.0-10.0 Hz) activity; and 3) non-REM sleep was defined by a low EMG amplitude, high EEG amplitude, and high 8 wave (0.65-4.5 Hz) activity.
To investigate the effect of the long acting KOR antagonist, nor-BNI, on sleep disruption in preclinical model of chronic pain, the percentage of sleep time for 24 hours between the groups administered nor-BNI or vehicle 10 days after partial sciatic nerve ligation (PSNL), and baseline before PSNL surgery were compared (FIG. 2A). The sham groups were also evaluated in the same time series as PSNL groups. […] First, in order to evaluate the sleep-wake cycle of each group, the changes in the percentage of sleep time were examined every two hours. […] Secondly, the percentage of total sleep (FIG. 2D), non-REM sleep (FIG. 2E), and REM sleep (FIG. 2F) were evaluated and time in the light phase and dark phase were evaluated separately. […] Then, duration of awake and non-REM sleep was evaluated at 6-hour intervals (early and late light phase and early and late dark phase), and compared between baseline, sham/vehicle group, PSNL/vehicle group, sham/nor-BNI group, and PSNL/nor-BNI group.

The subject of a further assay is PSNL mice. Kind of assay: von Frey test (paw withdrawal threshold, tactile allodynia). The class given is in vivo. The settings on record: nor-BNI, naïve or injured (PSNL) animals.
The mark [2] stands for this setting: PSNL, continuous infusion of CYM-53093 10 mg/kg/day, 10 mg/kg/day.
The mark [3] stands for this setting: PSNL group, nor-BNI 10 mg/kg i.p.
Setting [4] is: sham animals, nor-BNI treated vs vehicle treated.

“Also recorded” adds a separate entry of the source.

For the compound `CCc1cc(F)c2nc(N3CCC(NC4CCOCC4)CC3)c(-c3nc(C)no3)c(C)c2c1` [CYM53093], the “fragmentation of non-REM sleep” value in assay [1] (PSNL, continuous infusion of CYM-53093 10 mg/kg/day) is given as “normalized fragmentation of non-REM sleep”. Besides, the sleep time result in assay [1] (PSNL, continuous infusion of CYM-53093 10 mg/kg/day by micro-osmotic pump, 5-day recording, 10 mg/kg/day) was “normalized the reduction of sleep time up until day 4; also recorded: normalized the reduction of sleep time and the effect lasted at least until day 4”. Further, in assay [1] (PSNL, continuous infusion of CYM-53093 10 mg/kg/day, test day 4, 10 mg/kg/day), the “power density of δ wave during non-REM sleep” value is recorded as “no change in the power density; also recorded: did not change”. In assay [1] (setting [2]), the REM sleep entry was “did not improve REM sleep”; the “duration of wakefulness at the first half of the dark phase” value is given as “improved non-REM sleep, wakefulness during the first part of the dark phase; also recorded: improved short duration of wakefulness at the first half of the dark phase”; the non-REM sleep result is “improved non-REM sleep; also recorded: mainly influenced non-REM sleep”. For the same compound, the “components of pain-related sleep disturbance (sleep time loss, fragmentation of sleep, daytime sleepiness)” value in assay [1] is listed as “improved several important components of pain-related sleep disturbance”.
In the case of `Oc1ccc2c3c1O[C@H]1c4[nH]c5c(c4C[C@@]4(O)[C@@H](C2)N(CC2CC2)CC[C@]314)C[C@@]1(O)[C@H]2Cc3ccc(O)c4c3[C@@]1(CCN2CC1CC1)[C@H]5O4` [nor-BNI, Norbinaltorphimine], in assay [1] (setting [3]), the REM sleep time entry is reported as “did not improve REM sleep time”; the “duration of wakefulness during the early half of the dark phase” value is on record as “improved the inability to stay awake during the dark (active) time of the day; also recorded: tended to extend this duration somewhat, it was not significant”; the non-REM sleep time entry is on record as “increased non-REM sleep time”; the “duration of non-REM sleep (sleep fragmentation)” value was “improved sleep fragmentation in PSNL during non-REM sleep”. Moreover, the “percentage of total sleep” value in assay [1] (PSNL group, nor-BNI 10 mg/kg i.p. 10 days after PSNL, light phase) came out at 71.4±1.3%. Further, the “duration of non-REM sleep (sleep fragmentation)” value in assay [1] (PSNL group, nor-BNI 10 mg/kg i.p., listed as Nor-BNI) is on record as “improved this fragmented sleep by PSNL”. The “sleep time (percentage of sleep time every two hours)” value in assay [1] (PSNL group, nor-BNI 10 mg/kg i.p., vs baseline before PSNL surgery) is listed as “normalized the deficit of sleep time of the partial sciatic nerve ligation (PSNL) group to the same as baseline; also recorded: normalized the reduction of sleep time of the PSNL group almost to the same level as baseline”. For the same compound, the “components of pain-related sleep disturbance (sleep time loss, fragmentation of sleep, daytime sleepiness)” value in assay [1] is recorded as “improved several important components of pain-related sleep disturbance”. Besides, in assay [1] (nor-BNI 10 mg/kg i.p.), the “power spectrum during non-REM sleep” value was “did not change the power spectrum; also recorded: unchanged in both groups”. Further, in the assay on sham surgery mice (setting [4]), the “percentage of non-REM sleep” value was “no significant difference in the percentage of total sleep and non-REM sleep”; the “percentage of total sleep” value is “no significant difference in the percentage of total sleep and non-REM sleep”. Also, the “sleep time (percentage of sleep time every two hours)” value with sham surgery mice (sham groups, nor-BNI 10 mg/kg i.p.) is “had no effect in the sham surgery group; also recorded: had no significant effect on sleep time”. In addition, the REM sleep time result with sham surgery mice (sham mice, nor-BNI 10 mg/kg i.p.) was “significantly reduced REM sleep time in sham mice”. In addition, the “evoked (mechanical/tactile) allodynia, paw withdrawal threshold” value in the assay on PSNL mice is recorded as “did not alter mechanical allodynia in naïve or injured animals; also recorded: did not influence the evoked allodynia”.

The record behind these values is US12564586B2, “Kappa opiod receptor antagonists for treating pain-related sleep disorders” (ARIZONA BOARD OF REGENTS ON BEHALF OF THE UNIVERSITY OF …, priority 2020, dated 2026).
